We go through three molecules from patent publication US11819503B2 (priority 2019, dated 2023).

Converted amounts (≈) assume the structure as drawn. “And” between values parts separate entries of the source, which are not always exact repeats. Identical values can stand only once. “Also recorded” adds a separate entry of the source. A value given as a limit tells only on which side of the number the result lay.

Series [1] has as its system All Coccidioides isolates (n = 59). Put plainly: microbe, parasite or virus in culture. The format is cell-based, Coccidioides species. The conditions noted are these: for MIC: read-out: GM MIC.
For series [2], the system named is Coccidioides immitis (n = 21). The series is described as follows: microbe, parasite or virus in culture. Particulars: for MIC50 / MIC90 / MIC: Coccidioides immitis; for MIC: read-out: GM MIC. The format is cell-based.
Series [3] deals with Coccidioides posadasii (n = 24). The series is described as follows: microbe, parasite or virus in culture. The format is cell-based. Particulars: for MIC50 / MIC90 / MIC: Coccidioides posadasii; for MIC: read-out: GM MIC.
Series [4] concerns C. immitis (isolate UTHSCSA DI17-143). The series is described as follows: microbe, parasite or virus in culture. In kind it is cell-based. Particulars: Coccidioides immitis.
Series [5] concerns C. immitis. On the set-up: species or system ICR mice. The conditions noted are these: mouse, in vivo.
The subject of series [6] is C. immitis. On the set-up: species or system ICR mice. Particulars: mouse, in vivo. The source holds these as a separate data set.
Series [7] deals with C. immitis. On the set-up: species or system ICR mice. The conditions noted are these: mouse, in vivo. The source holds these as a separate data set.
For the next series, the system named is coccidioidomycosis. Particulars: human, in vivo.
The conditions of series [8]: mouse, in vivo, po.
Series [9] concerns the target recombinant human enzyme (dihydroorotate dehydrogenase) (Homo sapiens, UniProt Q02127). The conditions noted are these: cited from earlier work.
The test system of series [10] is dihydroorotate dehydrogenase in yeast, including Candida and Cryptococcus species. Particulars: cited from earlier work.
The next series is described as follows: in vivo. The conditions noted are these: mouse; for AUC(0-t): AUC 0-12.

recombinant human enzyme (dihydroorotate dehydrogenase), sequence (Q02127 whole entry): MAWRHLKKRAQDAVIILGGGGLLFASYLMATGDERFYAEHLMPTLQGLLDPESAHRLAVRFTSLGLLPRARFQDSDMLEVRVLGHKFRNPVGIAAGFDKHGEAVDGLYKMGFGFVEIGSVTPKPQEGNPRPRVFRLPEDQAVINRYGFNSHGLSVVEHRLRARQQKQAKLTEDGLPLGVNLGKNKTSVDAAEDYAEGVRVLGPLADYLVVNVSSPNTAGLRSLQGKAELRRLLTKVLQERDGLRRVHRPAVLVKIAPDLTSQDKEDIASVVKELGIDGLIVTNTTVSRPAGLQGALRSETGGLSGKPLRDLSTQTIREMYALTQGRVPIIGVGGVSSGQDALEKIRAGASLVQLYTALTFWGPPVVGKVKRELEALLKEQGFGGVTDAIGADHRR

Regarding `Cc1cc(-c2ccccc2)c(C(=O)C(=O)Nc2ccc(N3CCN(c4ncc(F)cn4)CC3)cc2)n1C` [olorofim, 2-(1,5-dimethyl-3-phenyl-1H-pyrrol-2-yl)-N-(4-(4-(5-fluoropyrimidin-2-yl)piperazin-1-yl)phenyl)-2-oxoacetamide], the MIC50 in [1], in series [2] and in series [3] was ≤ 0.008 µg/mL each time. For the same molecule, the MIC90 in series [1], in [2] and in [3] was 0.015 µg/mL (≈ 0.0301 µM) each time. The MIC in [1] was determined as 0.011 µg/mL (≈ 0.0221 µM); in series [2] it was 0.009 µg/mL (≈ 0.0181 µM); in [3] it was 0.009 µg/mL (≈ 0.0181 µM); in [4], 0.015 µg/mL (≈ 0.0301 µM). The MIC range in series [2] and in series [3] was ≤0.008 to 0.015 µg/mL each time. Also, the “day on which mice began to succumb to infection” value in the series with C. immitis [5] is 18 days. Besides, the median survival time with C. immitis [5] is 22 days and 26 days and 23.5 days and > 30 days. Moreover, the “percentage of mice that survived to the study endpoint” value in the series on C. immitis [5] is reported as 80%. The “brain fungal burden (mean CFU count)” value in the series on C. immitis [6] was 4.36 log 10 CFU/g and 3.41 log 10 CFU/g. In the series on C. immitis [6], the “fungal burdens, three times daily compared to twice daily administration” value is reported as “further reductions in fungal burdens”. In addition, the “mice with no fungal colonies in plated whole-brain homogenates” value in the series with C. immitis [7] was 7 of the 10 and 7 of 10. In the series on coccidioidomycosis, the “clinical status at 3 months” value was “no longer required the use of oxygen and was able to walk unaided”. In the series with coccidioidomycosis, the “clinical status at 6 months” value was “continues to be asymptomatic 6 months after initiation of olorofim therapy”. Besides, the symptomatic response result with coccidioidomycosis is on record as “symptomatic improvements within a few weeks; also recorded: symptomatic improvement within three weeks”. In addition, the “time to symptomatic improvement” value in the series on coccidioidomycosis is ≤ 4 weeks. For the same molecule, in [8], the “Levels in brain compared with plasma” value was “slightly lower than those in plasma”. For the same molecule, in series [8], the “Levels in lung compared with plasma” value is recorded as “slightly higher”. Besides, the “exposure in females compared with males” value in series [8] is recorded as “slightly higher in females”. The “inhibition of dihydroorotate dehydrogenase” value in [9] and in series [10] was “little to no inhibition” throughout. Besides, the Tmax in “in vivo” (both, Plasma Tmax) was ≤ 1 h; in “in vivo” (female, po, 10 mg/kg, Tmax), 1 h; in the series “in vivo” (female, po, 30 mg/kg, Tmax) it was 1 h; in the series “in vivo” (male, po, 10 mg/kg, Tmax), 0.5 h; in the series “in vivo” (male, po, 20 mg/kg, Tmax) it was 1 h; in “in vivo” (male, po, 30 mg/kg, Tmax), 1 h. Moreover, the AUC(0-t) was 11400 ng·h/mL in “in vivo” (female, po, 10 mg/kg); 26600 ng·h/mL in the series “in vivo” (female, po, 20 mg/kg); 30800 ng·h/mL in the series “in vivo” (female, po, 30 mg/kg); 8700 ng·h/mL in the series “in vivo” (male, po, 10 mg/kg); 22100 ng·h/mL in “in vivo” (male, po, 20 mg/kg); 27700 ng·h/mL in “in vivo” (male, po, 30 mg/kg). Also, the Cmax was 4610 ng/mL in the series “in vivo” (female, po, 20 mg/kg); 4110 ng/mL in “in vivo” (female, po, 30 mg/kg); 3910 ng/mL in “in vivo” (male, po, 20 mg/kg); 4110 ng/mL in the series “in vivo” (male, po, 30 mg/kg). Besides, the half-life in the series “in vivo” is ~2 h.
In the case of `OC(Cn1cncn1)(Cn1cncn1)c1ccc(F)cc1F` [fluconazole, reference compound], the MIC in [4] is 16 µg/mL (≈ 52.2 µM). Moreover, in the series with C. immitis [5], the median survival time is 30 days and 28 days. The “brain fungal burden (mean of combined results)” value in the series on C. immitis [6] is 1.33 log 10 CFU/g. For the same molecule, in the series on C. immitis [7], the “rebound in fungal burdens once therapy was stopped” value was “rebound in fungal burdens”.
Consider `C[C@@H](c1ncncc1F)[C@](O)(Cn1cncn1)c1ccc(F)cc1F` [voriconazole, reference compound], for which the MIC50 in series [1] worked out at 0.125 µg/mL (≈ 0.358 µM); in [2] it was 0.06 µg/mL (≈ 0.172 µM); in [3], 0.125 µg/mL (≈ 0.358 µM). Also, the MIC90 in series [1] came to 0.25 µg/mL (≈ 0.716 µM); in [2] it was 0.125 µg/mL (≈ 0.358 µM); in [3] it was 0.125 µg/mL (≈ 0.358 µM). In addition, the MIC was found to be 0.113 µg/mL (≈ 0.323 µM) in [1], 0.072 µg/mL (≈ 0.206 µM) in [2], 0.103 µg/mL (≈ 0.295 µM) in series [3] and 0.125 µg/mL (≈ 0.358 µM) in [4]. Also, the MIC range in series [2] and in [3] was ≤0.03 to 0.25 µg/mL in each case.

The term Tmax denotes the time at which the peak concentration occurs. One may read the AUC(0-t) as the area under the concentration-time curve up to a stated or last time point. A higher AUC(0-t) goes with high exposure. As usually defined, the Cmax is the maximum level reached in the sampled fluid or tissue. A word on the half-life: it is the time in which the quantity being followed falls by half. High values mean slow loss, low ones fast loss.
